Data on seven molecules can be found in patent US20040053355A1, “Modular approach to on-line synthesis, drug discovery and biochemical transformations using immobilized enzyme reactors” (priority 2000, published 2004).

For assay [1], the target named is T1, phenylethanolamine N-methyltransferase (PNMT), non-immobilized (Bos taurus, UniProt P10938).
T1 sequence (P10938 1-283): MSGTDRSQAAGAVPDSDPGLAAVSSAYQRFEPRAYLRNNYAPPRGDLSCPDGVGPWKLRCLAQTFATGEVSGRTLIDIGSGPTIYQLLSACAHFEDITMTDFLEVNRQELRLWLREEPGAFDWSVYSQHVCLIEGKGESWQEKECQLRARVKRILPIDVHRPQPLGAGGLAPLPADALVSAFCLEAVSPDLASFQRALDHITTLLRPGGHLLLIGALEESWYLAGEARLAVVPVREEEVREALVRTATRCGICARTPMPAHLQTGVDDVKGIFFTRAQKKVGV
In words: Non-immobilized PNMT activity assay, batch incubation with HPLC-fluorescence analysis. It is filed as biochemical, bovine. As to the method:
A mobile phase consisting of potassium phosphate buffer (50 mM) adjusted to pH 2.0 with trifluoroacetic acid was utilized to achieve the desired chromatographic separation of the products from the substrates. The solutes were quantitated using fluorescence detection with excitation at λ=266 nm and emission at λ=380 nm. A flow rate of 0.7 ml/min and ambient temperature were used throughout the study.
(§1) The activity of phenylethanolamine N-methyltransferase was assayed as follows: [final concentration] To 500 μL of enzyme solution [163 μg] was added 50 μL S-adenosyl-L-methionine [20 μM] and the solution was vortexed for 1 min. The reaction was started by addition of the 50 μL substrate [1 mM]. The reaction medium was incubated for 10 min at 37° C. in a shaking bath. The resulting solution was centrifuged at 3000×g and the supernatant were directly injected onto the HPLC under the above mentioned conditions.

The target in assay [2] is T2, PNMT-Glut-P stationary phase (PNMT-SP) (Bos taurus, UniProt P10938).
T2 sequence (P10938 1-283): T1 sequence (P10938 1-283)
The assay is described as follows: PNMT immobilized on Glut-P stationary phase (PNMT-SP), batch assay. It is filed as biochemical, bovine. The protocol: as §1
Immobilization onto the Glut-P Liquid Chromatographic stationary phase was accomplished in the following manner: (1) the stationary phase (10-100 mg) was washed three times with 0.1 M sodium phosphate buffer adjusted to pH 8.30 with 5M NaOH. The washing was carried out by adding 1 ml of buffer to the stationary phase, the suspension was mixed for 1 min, centrifuged at 3000×g for 10 min, and the supernatant decanted. (2) The enzyme solution [98 μg in 0.6 ml sodium phosphate buffer (0.1M, pH 8.30)] was added to the packing material, the mixture was mixed gently for 5 min and then placed in a rotator/stirrer bath for 18 h at ambient temperature. (3) At the end of 18 h, the suspension was centrifuged, the supernatant decanted and the packing material was washed three additional times with buffer. (4) The amount of enzyme immobilized on the packing material was determined by measuring the amount of residual enzyme in the supernatant using the BioRad Protein Assay. The difference in the absorbance reading before immobilization and the combined absorbances of the washings after immobilization determined the amount of enzyme bound on the packing material.

Assay [3] addresses T3, PNMT-IMER (immobilized phenylethanolamine N-methyltransferase) (Bos taurus, UniProt P10938).
T3 sequence (P10938 1-283): T1 sequence (P10938 1-283)
In words: On-line PNMT immobilized enzyme reactor (PNMT-IMER) HPLC system. Type of assay: biochemical, bovine. The settings on record: for IC50: n = 2, read-out: IC 50 PNMT-IMER. From the text: PNMT immobilized on the Glut-P stationary phase was packed into a lcm×10 mm guard (Regis Technologies). The guard was put into a holder and the column was placed onto the chromatographic system. The PNMT-IMER was washed with phosphate buffer [0.1M, pH 8.3]. The eluent was collected in order to determine if any of the enzyme was being washed off the column. The Biorad assay was utilized to measure the amount of non-immobilized enzyme. When the column was not in use it was washed with phosphate buffer [0.1M, pH 8.3] and stored at 4° C.
The pump on system 2 is stopped. 100 μl of a substrate/cofactor mixture is loaded into the injector (i) and the value is switched to the inject position at the same time the switching valve (SV) is switched such that the substrate/product are eluted from the PNMT-IMER and concentrated onto the analytical columns of System 2 for the specified contact time. When the specific contact time elapses the SV is switched back to the original position and the pump on system 2 is started. The unreacted substrate and product formed are separated on the coupled analytical columns.
The enzymatic activity on the PNMT-IMER was determined by quantification of the amount of product formed with a given substrate. The temperature of the PNMT-IMER unless otherwise stated was kept at 37° C. with a column heater. Stock solutions of normetanephrine were prepared in water. The substrate concentrations examined ranged from 0.15-10 mM and that of the cofactor, S-adenosyl-L-methionine, ranged from 5-100 μM.
Enzymatic activity was examined carrying out injections of a series of substrate/cofactor mixtures. The mixtures were injected onto the IMER at a flow rate of 0.2 ml/min for a contact time of 20 min. The kinetic parameters were determined by drawing Lineweaver-Burke plots utilizing Microsoft Excel. Results are expressed as mean±standard error of the mean (SEM).
The effect of known inhibitors, S-adenosylhomocysteine and methyldopa on the enzymatic activity of the PNMT-IMER was also examined. The inhibition of the PNMT-IMER was carried out using injections of a series of substrate/cofactor/inhibitor mixtures.

The target of assay [4] is T2, PNMT-Glut-P stationary phase (PNMT-SP). The note with it: Table 7, *Data obtained from reference 14; cited from earlier work.
[5] abbreviates: non-immobilized PNMT, read-out: Ki PNMT.
Where [6] appears, read: immobilized PNMT, read-out: Ki PNMT-SP.
Where [7] appears, read: 0.2 ml/min, contact time 20 min, 37° C., n = 2.

Where a name gives a salt, the structure may show the parent alone. Read-outs that look alike come from different tables or passages of the source.

The term Ki denotes the dissociation constant of the complex between target and ligand, obtained from inhibition or displacement. In the case of `CCN1C(=O)C=CC1=O` [N-ethylmaleimide], the Ki in assay [1] (setting [5]) amounted to 1.04 ± 0.49 µM; in assay [2] (setting [6]), 4.92 ± 0.16 µM.

Turning to `Nc1ncnc2c1ncn2[C@@H]1O[C@H](CSCC[C@H](N)C(=O)O)[C@@H](O)[C@H]1O` [SAH, S-adenosyl-L-homocysteine], the IC50 came to 40.1 µM in assay [1] and 50.5 ± 1.5 µM in assay [3]. Also, the “concentration as low as which the PNMT-IMER is inhibited” value in assay [3] stood at 5 µM.

For `Cl.NCc1ccccc1` [Benzylamine, benzylamine hydrochloride], the “concentration as low as which the enzyme is inhibited” value in assay [1] (non-immobilized PNMT) and in assay [2] (immobilized PNMT) was 100 µM in each case. The Ki in assay [1] (setting [5]) was found to be 220 ± 110 µM; in assay [2] (setting [6]), 690 ± 100 µM. Besides, the “inhibition of PNMT activity, immobilized PNMT compared to the non-immobilized PNMT” value in assay [2] (FIG. 8) is on record as “three times higher”.

The Vmax is the top rate of the reaction or transport when substrate is in excess. The Km is the substrate concentration at which the rate is half of its maximum. As for `COc1cc(C(O)CN)ccc1O` (racemic) [Normetanephrine, DL-normetanephrine hydrochloride], the Vmax in assay [2] (PNMT-SP, Table 5) is 0.823 µmol/mg/min. Besides, in assay [4], the Km is 152 µM and the Vmax is 0.823 µmol/mg/min.

On to methyl-dopa, for which the IC50 in assay [1] (non-immobilized PNMT, n = 2, read-out: IC 50 PNMT) turned out to be 10.4 µM; in assay [3], 7.6 ± 0.2 µM. The “concentration as low as which the PNMT-IMER is inhibited” value in assay [3] worked out at 1 µM.

On to `C[S+](CC[C@H](N)C(=O)O)C[C@H]1O[C@@H](n2cnc3c(N)ncnc32)[C@H](O)[C@@H]1O` (stereo partly drawn) [SAM, S-adenosyl-L-methionine], for which the Km in assay [1] (non-immobilized PNMT) is 14.2 µM; in assay [2] (PNMT-SP, Table 5), 10.6 µM; in assay [3] (setting [7]) it was 7.31 µM; in assay [4] it was 10.6 µM. The Vmax in assay [1] (non-immobilized PNMT) is 1.249 µmol/mg/min; in assay [2] (PNMT-SP, Table 5), 0.654 µmol/mg/min; in assay [3] (setting [7]), 0.424 µmol/mg/min; in assay [4], 0.254 µmol/mg/min.

Take `O=S(=O)(O)c1cc[c]([Hg][Cl])cc1` [p-chloromercuriphenylsulfonic acid, p-chloromercuriphenylsulfonic acid monosodium salt]: the Ki in assay [1] amounted to 120 ± 140 µM; in assay [2] it was 520 ± 190 µM.
